Measurements from a compilation of properties of binary mixtures (doi:10.1021/je990135o).

Assay: excess molar enthalpy (molar enthalpy of mixing); xn = mol fraction of the nth substance listed
Conditions: 100 kPa

## CCCCOCCO + CCOC(=O)OCC
298.15 K, x2 = 0.043
  excess molar enthalpy: 0.0402 kcal/mol
298.15 K, x2 = 0.0431
  excess molar enthalpy: 0.038 kcal/mol
298.15 K, x2 = 0.0824
  excess molar enthalpy: 0.076 kcal/mol
298.15 K, x2 = 0.0827
  excess molar enthalpy: 0.0707 kcal/mol
298.15 K, x2 = 0.1188
  excess molar enthalpy: 0.107 kcal/mol
298.15 K, x2 = 0.1191
  excess molar enthalpy: 0.098 kcal/mol
298.15 K, x2 = 0.2123
  excess molar enthalpy: 0.177 kcal/mol
298.15 K, x2 = 0.2129
  excess molar enthalpy: 0.163 kcal/mol
298.15 K, x2 = 0.265
  excess molar enthalpy: 0.191 kcal/mol
298.15 K, x2 = 0.3503
  excess molar enthalpy: 0.254 kcal/mol
298.15 K, x2 = 0.351
  excess molar enthalpy: 0.229 kcal/mol
298.15 K, x2 = 0.4181
  excess molar enthalpy: 0.278 kcal/mol
298.15 K, x2 = 0.4189
  excess molar enthalpy: 0.25 kcal/mol
298.15 K, x2 = 0.5196
  excess molar enthalpy: 0.268 kcal/mol
298.15 K, x2 = 0.6138
  excess molar enthalpy: 0.267 kcal/mol
298.15 K, x2 = 0.618
  excess molar enthalpy: 0.295 kcal/mol
298.15 K, x2 = 0.6832
  excess molar enthalpy: 0.281 kcal/mol
298.15 K, x2 = 0.7639
  excess molar enthalpy: 0.245 kcal/mol
298.15 K, x2 = 0.7644
  excess molar enthalpy: 0.227 kcal/mol
298.15 K, x2 = 0.8118
  excess molar enthalpy: 0.218 kcal/mol
298.15 K, x2 = 0.8123
  excess molar enthalpy: 0.202 kcal/mol
298.15 K, x2 = 0.8661
  excess molar enthalpy: 0.173 kcal/mol
298.15 K, x2 = 0.8665
  excess molar enthalpy: 0.159 kcal/mol
298.15 K, x2 = 0.8961
  excess molar enthalpy: 0.142 kcal/mol
298.15 K, x2 = 0.8964
  excess molar enthalpy: 0.134 kcal/mol
298.15 K, x2 = 0.9228
  excess molar enthalpy: 0.0593 kcal/mol
298.15 K, x2 = 0.9283
  excess molar enthalpy: 0.106 kcal/mol
298.15 K, x2 = 0.9285
  excess molar enthalpy: 0.0994 kcal/mol

## CCCCOCCOCCO + CCOC(=O)OCC
298.15 K, x2 = 0.0553
  excess molar enthalpy: 0.0217 kcal/mol
298.15 K, x2 = 0.1047
  excess molar enthalpy: 0.0433 kcal/mol
298.15 K, x2 = 0.1493
  excess molar enthalpy: 0.06 kcal/mol
298.15 K, x2 = 0.1896
  excess molar enthalpy: 0.0793 kcal/mol
298.15 K, x2 = 0.2598
  excess molar enthalpy: 0.106 kcal/mol
298.15 K, x2 = 0.3188
  excess molar enthalpy: 0.125 kcal/mol
298.15 K, x2 = 0.4125
  excess molar enthalpy: 0.151 kcal/mol
298.15 K, x2 = 0.4834
  excess molar enthalpy: 0.165 kcal/mol
298.15 K, x2 = 0.584
  excess molar enthalpy: 0.176 kcal/mol
298.15 K, x2 = 0.6781
  excess molar enthalpy: 0.175 kcal/mol
298.15 K, x2 = 0.8081
  excess molar enthalpy: 0.15 kcal/mol
298.15 K, x2 = 0.8488
  excess molar enthalpy: 0.131 kcal/mol
298.15 K, x2 = 0.8939
  excess molar enthalpy: 0.104 kcal/mol
298.15 K, x2 = 0.9182
  excess molar enthalpy: 0.0884 kcal/mol
298.15 K, x2 = 0.944
  excess molar enthalpy: 0.0641 kcal/mol
298.15 K, x2 = 0.9712
  excess molar enthalpy: 0.0356 kcal/mol
313.15 K, x2 = 0.1043
  excess molar enthalpy: 0.0521 kcal/mol
313.15 K, x2 = 0.1488
  excess molar enthalpy: 0.0743 kcal/mol
313.15 K, x2 = 0.3179
  excess molar enthalpy: 0.149 kcal/mol
313.15 K, x2 = 0.4114
  excess molar enthalpy: 0.175 kcal/mol
313.15 K, x2 = 0.4823
  excess molar enthalpy: 0.193 kcal/mol
313.15 K, x2 = 0.583
  excess molar enthalpy: 0.205 kcal/mol
313.15 K, x2 = 0.6772
  excess molar enthalpy: 0.204 kcal/mol
313.15 K, x2 = 0.7366
  excess molar enthalpy: 0.193 kcal/mol
313.15 K, x2 = 0.8075
  excess molar enthalpy: 0.171 kcal/mol
313.15 K, x2 = 0.8935
  excess molar enthalpy: 0.12 kcal/mol
313.15 K, x2 = 0.9179
  excess molar enthalpy: 0.0973 kcal/mol
313.15 K, x2 = 0.9438
  excess molar enthalpy: 0.0715 kcal/mol
313.15 K, x2 = 0.9711
  excess molar enthalpy: 0.0392 kcal/mol

## CCOCCO + CCOC(=O)OCC
298.15 K, x2 = 0.0322
  excess molar enthalpy: 0.0225 kcal/mol
298.15 K, x2 = 0.0624
  excess molar enthalpy: 0.0433 kcal/mol
298.15 K, x2 = 0.1175
  excess molar enthalpy: 0.0801 kcal/mol
298.15 K, x2 = 0.1666
  excess molar enthalpy: 0.11 kcal/mol
298.15 K, x2 = 0.2104
  excess molar enthalpy: 0.136 kcal/mol
298.15 K, x2 = 0.2855
  excess molar enthalpy: 0.171 kcal/mol
298.15 K, x2 = 0.4442
  excess molar enthalpy: 0.223 kcal/mol
298.15 K, x2 = 0.5454
  excess molar enthalpy: 0.234 kcal/mol
298.15 K, x2 = 0.7057
  excess molar enthalpy: 0.221 kcal/mol
298.15 K, x2 = 0.8275
  excess molar enthalpy: 0.17 kcal/mol
298.15 K, x2 = 0.8648
  excess molar enthalpy: 0.145 kcal/mol
298.15 K, x2 = 0.9056
  excess molar enthalpy: 0.111 kcal/mol
313.15 K, x2 = 0.0321
  excess molar enthalpy: 0.028 kcal/mol
313.15 K, x2 = 0.0623
  excess molar enthalpy: 0.0531 kcal/mol
313.15 K, x2 = 0.0906
  excess molar enthalpy: 0.0753 kcal/mol
313.15 K, x2 = 0.1173
  excess molar enthalpy: 0.0951 kcal/mol
313.15 K, x2 = 0.2099
  excess molar enthalpy: 0.158 kcal/mol
313.15 K, x2 = 0.285
  excess molar enthalpy: 0.199 kcal/mol
313.15 K, x2 = 0.3469
  excess molar enthalpy: 0.226 kcal/mol
313.15 K, x2 = 0.4436
  excess molar enthalpy: 0.256 kcal/mol
313.15 K, x2 = 0.5447
  excess molar enthalpy: 0.27 kcal/mol
313.15 K, x2 = 0.6146
  excess molar enthalpy: 0.271 kcal/mol
313.15 K, x2 = 0.7052
  excess molar enthalpy: 0.254 kcal/mol
313.15 K, x2 = 0.8271
  excess molar enthalpy: 0.193 kcal/mol
313.15 K, x2 = 0.8645
  excess molar enthalpy: 0.165 kcal/mol
313.15 K, x2 = 0.9054
  excess molar enthalpy: 0.124 kcal/mol
313.15 K, x2 = 0.9503
  excess molar enthalpy: 0.0717 kcal/mol

## CCOCCOCCO + CCOC(=O)OCC
298.15 K, x2 = 0.1227
  excess molar enthalpy: 0.0459 kcal/mol
298.15 K, x2 = 0.1571
  excess molar enthalpy: 0.0614 kcal/mol
298.15 K, x2 = 0.2185
  excess molar enthalpy: 0.0837 kcal/mol
298.15 K, x2 = 0.2716
  excess molar enthalpy: 0.102 kcal/mol
298.15 K, x2 = 0.3587
  excess molar enthalpy: 0.128 kcal/mol
298.15 K, x2 = 0.4271
  excess molar enthalpy: 0.146 kcal/mol
298.15 K, x2 = 0.528
  excess molar enthalpy: 0.163 kcal/mol
298.15 K, x2 = 0.6911
  excess molar enthalpy: 0.168 kcal/mol
298.15 K, x2 = 0.8173
  excess molar enthalpy: 0.141 kcal/mol
298.15 K, x2 = 0.8995
  excess molar enthalpy: 0.0985 kcal/mol
298.15 K, x2 = 0.9307
  excess molar enthalpy: 0.0748 kcal/mol
298.15 K, x2 = 0.9641
  excess molar enthalpy: 0.0425 kcal/mol
313.15 K, x2 = 0.0443
  excess molar enthalpy: 0.0198 kcal/mol
313.15 K, x2 = 0.1222
  excess molar enthalpy: 0.0574 kcal/mol
313.15 K, x2 = 0.1566
  excess molar enthalpy: 0.0767 kcal/mol
313.15 K, x2 = 0.2313
  excess molar enthalpy: 0.109 kcal/mol
313.15 K, x2 = 0.2708
  excess molar enthalpy: 0.126 kcal/mol
313.15 K, x2 = 0.3578
  excess molar enthalpy: 0.157 kcal/mol
313.15 K, x2 = 0.4261
  excess molar enthalpy: 0.175 kcal/mol
313.15 K, x2 = 0.527
  excess molar enthalpy: 0.197 kcal/mol
313.15 K, x2 = 0.6257
  excess molar enthalpy: 0.202 kcal/mol
313.15 K, x2 = 0.7697
  excess molar enthalpy: 0.184 kcal/mol
313.15 K, x2 = 0.8167
  excess molar enthalpy: 0.167 kcal/mol
313.15 K, x2 = 0.8699
  excess molar enthalpy: 0.139 kcal/mol
313.15 K, x2 = 0.8991
  excess molar enthalpy: 0.117 kcal/mol
313.15 K, x2 = 0.9304
  excess molar enthalpy: 0.0872 kcal/mol

## COCCO + CCOC(=O)OCC
298.15 K, x2 = 0.0263
  excess molar enthalpy: 0.0225 kcal/mol
298.15 K, x2 = 0.0264
  excess molar enthalpy: 0.0191 kcal/mol
298.15 K, x2 = 0.0512
  excess molar enthalpy: 0.0437 kcal/mol
298.15 K, x2 = 0.0514
  excess molar enthalpy: 0.0363 kcal/mol
298.15 K, x2 = 0.075
  excess molar enthalpy: 0.0607 kcal/mol
298.15 K, x2 = 0.0975
  excess molar enthalpy: 0.0798 kcal/mol
298.15 K, x2 = 0.0978
  excess molar enthalpy: 0.0672 kcal/mol
298.15 K, x2 = 0.1395
  excess molar enthalpy: 0.112 kcal/mol
298.15 K, x2 = 0.1398
  excess molar enthalpy: 0.0973 kcal/mol
298.15 K, x2 = 0.1777
  excess molar enthalpy: 0.138 kcal/mol
298.15 K, x2 = 0.1781
  excess molar enthalpy: 0.119 kcal/mol
298.15 K, x2 = 0.2454
  excess molar enthalpy: 0.153 kcal/mol
298.15 K, x2 = 0.3017
  excess molar enthalpy: 0.208 kcal/mol
298.15 K, x2 = 0.3023
  excess molar enthalpy: 0.178 kcal/mol
298.15 K, x2 = 0.3933
  excess molar enthalpy: 0.246 kcal/mol
298.15 K, x2 = 0.3941
  excess molar enthalpy: 0.211 kcal/mol
298.15 K, x2 = 0.4931
  excess molar enthalpy: 0.268 kcal/mol
298.15 K, x2 = 0.4939
  excess molar enthalpy: 0.23 kcal/mol
298.15 K, x2 = 0.5646
  excess molar enthalpy: 0.274 kcal/mol
298.15 K, x2 = 0.5653
  excess molar enthalpy: 0.237 kcal/mol
298.15 K, x2 = 0.6605
  excess molar enthalpy: 0.265 kcal/mol
298.15 K, x2 = 0.6611
  excess molar enthalpy: 0.23 kcal/mol
298.15 K, x2 = 0.7217
  excess molar enthalpy: 0.247 kcal/mol
298.15 K, x2 = 0.7223
  excess molar enthalpy: 0.218 kcal/mol
298.15 K, x2 = 0.796
  excess molar enthalpy: 0.188 kcal/mol
298.15 K, x2 = 0.8384
  excess molar enthalpy: 0.182 kcal/mol
298.15 K, x2 = 0.8388
  excess molar enthalpy: 0.164 kcal/mol
298.15 K, x2 = 0.8861
  excess molar enthalpy: 0.142 kcal/mol
298.15 K, x2 = 0.8864
  excess molar enthalpy: 0.129 kcal/mol
298.15 K, x2 = 0.9396
  excess molar enthalpy: 0.0841 kcal/mol
298.15 K, x2 = 0.9398
  excess molar enthalpy: 0.0767 kcal/mol

## COCCOCCO + CCOC(=O)OCC
298.15 K, x2 = 0.0388
  excess molar enthalpy: 0.0174 kcal/mol
298.15 K, x2 = 0.0748
  excess molar enthalpy: 0.0337 kcal/mol
298.15 K, x2 = 0.1392
  excess molar enthalpy: 0.06 kcal/mol
298.15 K, x2 = 0.1952
  excess molar enthalpy: 0.0827 kcal/mol
298.15 K, x2 = 0.2444
  excess molar enthalpy: 0.103 kcal/mol
298.15 K, x2 = 0.3267
  excess molar enthalpy: 0.126 kcal/mol
298.15 K, x2 = 0.3927
  excess molar enthalpy: 0.146 kcal/mol
298.15 K, x2 = 0.66
  excess molar enthalpy: 0.175 kcal/mol
298.15 K, x2 = 0.7443
  excess molar enthalpy: 0.165 kcal/mol
298.15 K, x2 = 0.7951
  excess molar enthalpy: 0.151 kcal/mol
298.15 K, x2 = 0.8534
  excess molar enthalpy: 0.125 kcal/mol
298.15 K, x2 = 0.8859
  excess molar enthalpy: 0.109 kcal/mol
298.15 K, x2 = 0.9209
  excess molar enthalpy: 0.0827 kcal/mol
298.15 K, x2 = 0.9588
  excess molar enthalpy: 0.0471 kcal/mol
313.15 K, x2 = 0.0387
  excess molar enthalpy: 0.0201 kcal/mol
313.15 K, x2 = 0.1077
  excess molar enthalpy: 0.0576 kcal/mol
313.15 K, x2 = 0.1386
  excess molar enthalpy: 0.0739 kcal/mol
313.15 K, x2 = 0.1945
  excess molar enthalpy: 0.101 kcal/mol
313.15 K, x2 = 0.2436
  excess molar enthalpy: 0.125 kcal/mol
313.15 K, x2 = 0.3257
  excess molar enthalpy: 0.157 kcal/mol
313.15 K, x2 = 0.3916
  excess molar enthalpy: 0.179 kcal/mol
313.15 K, x2 = 0.4914
  excess molar enthalpy: 0.202 kcal/mol
313.15 K, x2 = 0.6589
  excess molar enthalpy: 0.215 kcal/mol
313.15 K, x2 = 0.7435
  excess molar enthalpy: 0.201 kcal/mol
313.15 K, x2 = 0.7944
  excess molar enthalpy: 0.185 kcal/mol
313.15 K, x2 = 0.8529
  excess molar enthalpy: 0.156 kcal/mol
313.15 K, x2 = 0.8854
  excess molar enthalpy: 0.133 kcal/mol
313.15 K, x2 = 0.9587
  excess molar enthalpy: 0.0583 kcal/mol
